We go through 10 molecules from US5707987A, “Carbapenem derivatives” (Banyu Pharmaceutical Co., Ltd., priority 1994, dated 1998).

Structures are written as SMILES. In brackets after ≈: the same amount, converted by molar mass. Like-named read-outs stand apart in the source and are kept apart here. Where only a bound is given, the exact number is not on record here.

Data set [1] relates to DHP-I. Type of data set: in vitro ADME. As to conditions: ratio to imipenem (=1.0); the smaller the value, the higher the stability. The source says:
Further, the DHP-I susceptibility was quantitatively analyzed by the method by Kropp et al., Antimicrob. Agents Chemother., vol. 22, pp. 62-70 (1982), whereby the smaller the numerical value representing the ratio to imipenem (=1.0), the higher the stability.
The DHP-1 susceptibility of the compounds of the present invention were compared with imipenem.

The test system of data set [2] is S. aureus BB5939. The data set is described as follows: In vitro antibacterial activity, agar plate dilution method (MIC). As to conditions: Staphylococcus aureus, read-out: Minimum Inhibitory Concentration (MIC). Type of data set: cell-based. The procedure:
(§1) One platinum loopful of each test microorganism incubated overnight in Mueller Hinton broth, was inoculated to Mueller Hinton agar (inoculum size: 10^6 CFU/ml). Such culture media contained antibacterial agents in various concentrations. […] The minimum inhibitory concentrations of the compounds of the present invention were compared with imipenem.

For data set [3], the system named is S. aureus pMS520/Smith. Described as above. As to conditions: Staphylococcus aureus, 16 h, read-out: Minimum Inhibitory Concentration (MIC). Type of data set: cell-based. The procedure: as §1
Data set [4] deals with highly methicillin-resistant Staphylococcus aureus resistant to imipenem and imipenem-resistant Pseudomonas aeruginosa. As to conditions: background statement; cited from earlier work.
For data set [5] the following is noted: cited from earlier work.
In data set [6] the test system is DHP-I. The note with it: background statement; cited from earlier work.
In data set [7] the test system is β-lactamase. The note with it: background statement; cited from earlier work.
The test system of data set [8] is gram positive bacteria and gram negative bacteria. As to conditions: background statement; cited from earlier work.
The test system of data set [9] is kidney. The note with it: background statement; cited from earlier work.
Data set [10] deals with renal dehydropeptidase I (DHP-I). The note with it: in vivo; cited from earlier work.
The conditions of data set [11]: background statement; cited from earlier work.
[12] abbreviates: S. aureus BB5939 (β-lactamase-producing bacterium per footnote), inoculum 10^6 CFU/ml, Mueller Hinton agar, 37° C., 16 hours.

On to `C[C@@H](O)[C@H]1C(=O)N2C(C(=O)[O-])=C(S[C@@H]3CN[C@H](CSc4ccccc4)C3)[C@H](C)[C@H]12.[Na+]`, for which the DHP-I susceptibility in data set [1] stood at 0.15. Also, the MIC in data set [2] (BB5939, 16 h) was 0.39 µg/mL; in [3] it was 1.56 µg/mL.

For `C[C@@H](O)[C@H]1C(=O)N2C(C(=O)O)=C(S[C@@H]3CN[C@H](C(O)c4ccc(-c5ccc(CN)cc5)cc4)C3)[C@H](C)[C@H]12` (single isomer, unassigned; diastereomer i) [Example 140], the DHP-I susceptibility in [1] is reported as less than 0.05. In addition, the MIC in data set [2] (setting [12]) worked out at 0.78 µg/mL (≈ 1.49 µM); in data set [3] it was 1.56 µg/mL (≈ 2.98 µM).

Consider `C[C@@H](O)[C@H]1C(=O)N2C(C(=O)O)=C(S[C@@H]3CN[C@H](CNc4ccc(CN)cc4)C3)[C@H](C)[C@H]12.Cl` [Example 121, (1R,5S,6S)-2-[(3S,5S)-5-[4-(Aminomethyl)anilinomethyl]-pyrrolidin-3-ylthio]-6-[(R)-1-hydroxyethyl]-1-methyl-1-carbapen-2-em-3-carboxylic acid monohydrochloride], for which the DHP-I susceptibility in data set [1] is 0.15. Also, the values for the MIC in [2] (setting [12]) and in [3] were 0.39 µg/mL and 1.56 µg/mL, respectively.

In the case of `C[C@@H](O)[C@H]1C(=O)N2C(C(=O)O)=C(S[C@@H]3CN[C@H](COc4ccc(CN)cc4)C3)[C@H](C)[C@H]12.Cl` [Example 127, (1R,5S,6S)-2-[(3S,5S)-5-[4-(Aminomethyl)phenoxymethyl]-pyrrolidin-3-ylthio]-6-[(R)-1-hydroxyethyl]-1-methyl-1-carbapen-2-em-3-carboxylic acid monohydrochloride], in [1], the DHP-I susceptibility turned out to be 0.15. In addition, the MIC in [2] (setting [12]) was 0.78 µg/mL; in data set [3], 3.13 µg/mL.

Turning to `C[C@@H](O)[C@H]1C(=O)N2C(C(=O)O)=C(S[C@@H]3CN[C@H](COc4ccccc4)C3)[C@H](C)[C@H]12` [Example 128, (1R,5S,6S)-6-[(R)-1-Hydroxyethyl]-1-methyl-2-[(3S,5S)-5-(phenoxymethyl)pyrrolidin-3-ylthio]-1-carbapen-2-em-3-carboxylic acid], the DHP-I susceptibility in data set [1] is on record as 0.16.

With `C[C@@H](O)[C@H]1C(=O)N2C(C(=O)O)=C(S[C@@H]3CN[C@H](Cc4ccc(CN)cc4)C3)[C@H](C)[C@H]12` [Example 131], the DHP-I susceptibility in [1] is reported as less than 0.05. For the same molecule, the figures for the MIC in data set [2] (setting [12]) and in data set [3] were 0.78 µg/mL (≈ 1.81 µM) and 3.13 µg/mL (≈ 7.25 µM), respectively.

Take `C=CCN1C[C@@H](SC2=C(C(=O)O)N3C(=O)[C@H]([C@@H](C)O)[C@H]3[C@H]2C)C[C@H]1Cc1cccc2ccccc12` [Example 137, (1R,5S,6S)-2-[(3S,5R)-N-Allyl-5-(1-naphthylmethyl)pyrrolidin-3-ylthio]-6-[(R)-1-hydroxyethyl]-1-methyl-1-carbapen-2-em-3-carboxylic acid]: the DHP-I susceptibility in data set [1] is listed as less than 0.05.

Turning to `C[C@@H](O)[C@H]1C(=O)N2C(C(=O)O)=C(SCCN=CN)C[C@H]12` [Imipenem, (5R,6S)-3-[2-(formimidoylamino)ethylthie]-6-[(R)-1-hydroxyethyl]-7-oxo-1-azabicyclo[3.2.0]hept-2-en-2-carboxylic acid monohydrate], the DHP-I susceptibility in data set [1] came to 1.0. For the same molecule, the “treating effects against resistant bacteria” value in data set [4] is “does not show adequate treating effects against these resistant bacteria”. Besides, the “stability in the solid form or in an aqueous solution” value in data set [5] (vs thienamycin) was “remarkably improved over thienamycin”. The MIC in data set [2] (BB5939, 16 h) is 6.25 µg/mL; in data set [3], more than 25 µg/mL. The “decomposition by DHP-I in the human kidney” value in data set [6] is listed as “likely to be decomposed by DHP-I in the human kidney”. Further, the β-lactamase resistance entry in data set [7] is listed as “β-lactamase resistance”. Also, the antibacterial activities result in data set [8] is listed as “antibacterial activities of an equal or higher level than thienamycin”. For the same molecule, the “toxicity against the kidney” value in data set [9] was “presents toxicity against the kidney”.

`C[C@@H](O)[C@H]1C(=O)N2C(C(=O)O)=C(SCCN)C[C@H]12` [thienamycin]: the chemical stability result in [5] (background statement) was “chemically unstable”. For the same molecule, the “decomposition by DHP-I in the human kidney” value in data set [6] was “likely to be decomposed by DHP-I in the human kidney”. Besides, the “decomposition by renal dehydropeptidase I” value in data set [10] is recorded as “likely to be decomposed”. In data set [8], the antibacterial activities result was “excellent antibacterial spectrum and strong antibacterial activities”. In addition, the “recovery rate in the urine” value in [11] was “low”.

In the case of `CN[C@H](CC(C)C)C(=O)N[C@H]1C(=O)N[C@@H](CC(N)=O)C(=O)N[C@H]2C(=O)N[C@H]3C(=O)N[C@H](C(=O)N[C@H](C(=O)O)c4cc(O)cc(O)c4-c4cc3ccc4O)[C@H](O)c3ccc(c(Cl)c3)Oc3cc2cc(c3O[C@@H]2O[C@H](CO)[C@@H](O)[C@H](O)[C@H]2O[C@H]2C[C@](C)(N)[C@H](O)[C@H](C)O2)Oc2ccc(cc2Cl)[C@H]1O` [vancomycin], the “toxicity against the kidney” value in [9] is recorded as “strong toxicity”.
